ChEMBL document CHEMBL3217601, “Optimized glucuronidation of dual pharmacology -2 agonists/M3 antagonists for the treatment of COPD” (Medchemcomm, 2011)
Calls of active or inactive are those of the source. No cut-off for these calls is given here.

Tests used:
[1] = Stability of the compound at 70 degC and 75% relative humidity assessed as impurity after 7 days; format: physicochemical; conditions: 168 h
[2] = biological target: T1, Beta-2 adrenergic receptor (Homo sapiens, UniProt P07550); experiment: Ratio of EC50 for human beta-2 adrenoceptor measured after drug washout to EC50 for human beta-2 adrenoceptor
Target sequence in this assay (P07550 whole entry, looked up): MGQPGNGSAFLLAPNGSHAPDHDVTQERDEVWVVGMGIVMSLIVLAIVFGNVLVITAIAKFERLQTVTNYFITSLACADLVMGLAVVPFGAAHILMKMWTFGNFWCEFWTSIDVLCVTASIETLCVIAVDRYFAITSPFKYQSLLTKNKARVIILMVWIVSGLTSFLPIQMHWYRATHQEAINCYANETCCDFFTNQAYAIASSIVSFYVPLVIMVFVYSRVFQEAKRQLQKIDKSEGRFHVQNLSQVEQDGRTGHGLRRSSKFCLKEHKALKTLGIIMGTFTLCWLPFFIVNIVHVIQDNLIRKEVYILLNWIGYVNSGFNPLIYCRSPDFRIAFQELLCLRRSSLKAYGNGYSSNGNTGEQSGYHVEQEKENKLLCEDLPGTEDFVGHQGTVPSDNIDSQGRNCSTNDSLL

[3] = AUC in rat at 0.2 mg/kg, po; format: ADME, organism-based; design: dose 0.2 mg/kg, route oral; conditions: plasma
[4] = Modulation of beta-2 adrenoceptor/muscarinic M3 receptor in guinea pig trachea assessed as inhibition of electric field stimulated muscle contraction by measuring release of endogenous acetylcholine; format: tissue-based, Cavia porcellus
Canis familiaris [5] = experiment: Bronchodilatory activity in intratracheally dosed dog assessed as inhibition of methacholine-induced bronchoconstriction; format: functional, Canis lupus familiaris
Cavia porcellus [6] = species: Cavia porcellus; experiment: Modulation of beta-2 adrenoceptor/muscarinic M3 receptor in guinea pig trachea assessed as time taken for muscle tone at submaximal concentration of compound to recover by 50% of inhibition induced; format: tissue-based
[7] = Genotoxicity in micronucleus (unknown origin)
[8] = Drug metabolism in human hepatocytes assessed as formation of phenol glucuronide and sulfate metabolite by LC/MS/MS analysis; format: ADME, cell-based, Hepatocyte
[9] = AUC in guinea pig at 0.2 mg/kg, po; format: ADME, organism-based, Cavia porcellus; design: dose 0.2 mg/kg, route oral; conditions: plasma
[10] = biological target: T2, Muscarinic acetylcholine receptor M3 (Homo sapiens, UniProt P20309); experiment: Displacement of [3H]-N-methyl scopolamine from human cloned muscarinic M3 receptor assessed as time taken to reach 50% of total [3H]-NMS
Target sequence in this assay (P20309 whole entry, looked up): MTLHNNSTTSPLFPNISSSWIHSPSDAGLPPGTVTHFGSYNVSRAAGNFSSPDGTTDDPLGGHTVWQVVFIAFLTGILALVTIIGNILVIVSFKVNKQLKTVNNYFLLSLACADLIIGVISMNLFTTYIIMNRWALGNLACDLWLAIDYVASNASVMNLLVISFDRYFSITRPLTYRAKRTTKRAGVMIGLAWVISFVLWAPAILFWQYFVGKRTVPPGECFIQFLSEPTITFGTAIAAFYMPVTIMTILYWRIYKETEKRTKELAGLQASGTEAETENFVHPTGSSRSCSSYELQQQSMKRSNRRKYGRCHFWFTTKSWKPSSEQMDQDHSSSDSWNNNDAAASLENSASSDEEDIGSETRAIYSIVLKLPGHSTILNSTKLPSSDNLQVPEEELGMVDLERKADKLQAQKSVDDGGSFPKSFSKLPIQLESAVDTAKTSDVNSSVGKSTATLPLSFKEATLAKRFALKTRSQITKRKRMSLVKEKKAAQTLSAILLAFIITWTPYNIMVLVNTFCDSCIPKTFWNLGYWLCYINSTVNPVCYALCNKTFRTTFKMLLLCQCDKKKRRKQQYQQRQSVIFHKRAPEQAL

Salmonella typhimurium = experiment: Genotoxicity in Salmonella typhimurium assessed by Ames test; format: toxicity, organism-based; conditions: salmonella enterica subsp. enterica serovar typhimurium
[11] = Clearance in guinea pig at 0.2 mg/kg, po; format: ADME, organism-based, Cavia porcellus; design: dose 0.2 mg/kg, route oral; conditions: in vivo
Canis familiaris [12] = experiment: Bronchodilatory activity in intratracheally dosed dog assessed as inhibition of methacholine-induced bronchoconstriction in presence of NK2 agonist BANA; format: functional, organism-based; conditions: Canis lupus familiaris
[13] = biological target: Beta-1 adrenergic receptor (Homo sapiens, UniProt P08588); experiment: Agonist activity at beta-1 adrenoceptor (unknown origin)
[14] = biological target: T2, Muscarinic acetylcholine receptor M3; experiment: Displacement of [3H]-N-methyl scopolamine from human cloned muscarinic M3 receptor
Target sequence in this assay (P20309 whole entry): as the sequence (P20309 whole entry, looked up) above

[15] = biological target: T1, Beta-2 adrenergic receptor; experiment: Agonist activity at human beta-2 adrenoceptor expressed in CHO cells assessed as stimulation of intracellular cAMP production; format: functional, cell-based
Target sequence in this assay (P07550 whole entry): as the sequence (P07550 whole entry, looked up) above

[16] = biological target: Muscarinic acetylcholine receptor M3 (Cavia porcellus, UniProt Q8VH26); experiment: Antagonist activity at muscarinic M3 receptor in guinea pig trachea assessed as inhibition of electric field stimulated muscle contraction by measuring release of endogenous acetylcholine in presence of propranolol
[17] = AUC in rat at 2 mg/kg, iv; format: ADME, organism-based; design: dose 2 mg/kg, route intravenous; conditions: plasma
Canis familiaris [18] = experiment: Bronchodilatory activity in intratracheally dosed dog assessed as inhibition of methacholine-induced bronchoconstriction in presence of propranolol; format: functional, organism-based; conditions: Canis lupus familiaris
[19] = Clearance in rat at 0.2 mg/kg, po; format: ADME, organism-based; design: dose 0.2 mg/kg, route oral; conditions: in vivo
[20] = biological target: Beta-2 adrenergic receptor (Cavia porcellus, UniProt Q8K4Z4); experiment: Agonist activity at beta-2 adrenoceptor in guinea pig trachea assessed as inhibition of histamine-induced muscle contraction
Canis familiaris [21] = experiment: Bronchodilatory activity in intratracheally dosed dog assessed as duration of inhibition of methacholine-induced bronchoconstriction; format: functional, Canis lupus familiaris
[22] = Intrinsic clearance in human liver microsomes assessed as glucuronidation in absence of NADPH and presence of microsomal activator Brij58 and UDPGA
[23] = Drug metabolism of the compound in human liver microsomes assessed as glucuronidation in absence of NADPH and presence of microsomal activator Brij58 and UDPGA
[24] = biological target: Muscarinic acetylcholine receptor M3 (Cavia porcellus) (UniProt Q8VH26); experiment: Antagonist activity at muscarinic M3 receptor in guinea pig trachea assessed as time taken for muscle tone at submaximal concentration of compound to recover by 50% of inhibition induced in presence of propranolol
Cavia porcellus [25] = species: Cavia porcellus; experiment: Bronchodilatory activity in guinea pig in presence of propranolol; format: functional, organism-based
Oryctolagus cuniculus = species: Oryctolagus cuniculus; experiment: Toxicity in rabbit cough model; format: organism-based; conditions: in vivo
[26] = Half life in rat at 0.2 mg/kg, po; format: ADME, organism-based; design: dose 0.2 mg/kg, route oral; conditions: in vivo
[27] = Clearance in rat at 2 mg/kg, iv; format: ADME, organism-based; design: dose 2 mg/kg, route intravenous; conditions: in vivo
[28] = Half life in guinea pig at 0.2 mg/kg, po; format: ADME, organism-based, Cavia porcellus; design: dose 0.2 mg/kg, route oral; conditions: in vivo
Cavia porcellus [29] = species: Cavia porcellus; experiment: Bronchodilatory activity in guinea pig in presence of NK2 agonist BANA; format: functional, organism-based

Beta-1 adrenergic receptor, sequence (P08588 whole entry): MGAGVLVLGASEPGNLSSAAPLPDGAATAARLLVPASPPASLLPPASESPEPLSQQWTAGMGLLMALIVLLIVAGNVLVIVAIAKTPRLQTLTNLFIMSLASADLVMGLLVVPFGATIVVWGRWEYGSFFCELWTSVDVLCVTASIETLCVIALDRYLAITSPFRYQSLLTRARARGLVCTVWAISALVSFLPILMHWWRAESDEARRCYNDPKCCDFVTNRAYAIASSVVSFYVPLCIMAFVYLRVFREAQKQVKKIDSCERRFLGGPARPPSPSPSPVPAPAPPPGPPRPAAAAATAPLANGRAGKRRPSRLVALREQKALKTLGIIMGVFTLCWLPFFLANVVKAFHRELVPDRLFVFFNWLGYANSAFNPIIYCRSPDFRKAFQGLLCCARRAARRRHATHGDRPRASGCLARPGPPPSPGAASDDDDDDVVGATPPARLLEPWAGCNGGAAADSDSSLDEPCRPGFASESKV
Muscarinic acetylcholine receptor M3 (Cavia porcellus, UniProt Q8VH26), sequence (Q8VH26 whole entry): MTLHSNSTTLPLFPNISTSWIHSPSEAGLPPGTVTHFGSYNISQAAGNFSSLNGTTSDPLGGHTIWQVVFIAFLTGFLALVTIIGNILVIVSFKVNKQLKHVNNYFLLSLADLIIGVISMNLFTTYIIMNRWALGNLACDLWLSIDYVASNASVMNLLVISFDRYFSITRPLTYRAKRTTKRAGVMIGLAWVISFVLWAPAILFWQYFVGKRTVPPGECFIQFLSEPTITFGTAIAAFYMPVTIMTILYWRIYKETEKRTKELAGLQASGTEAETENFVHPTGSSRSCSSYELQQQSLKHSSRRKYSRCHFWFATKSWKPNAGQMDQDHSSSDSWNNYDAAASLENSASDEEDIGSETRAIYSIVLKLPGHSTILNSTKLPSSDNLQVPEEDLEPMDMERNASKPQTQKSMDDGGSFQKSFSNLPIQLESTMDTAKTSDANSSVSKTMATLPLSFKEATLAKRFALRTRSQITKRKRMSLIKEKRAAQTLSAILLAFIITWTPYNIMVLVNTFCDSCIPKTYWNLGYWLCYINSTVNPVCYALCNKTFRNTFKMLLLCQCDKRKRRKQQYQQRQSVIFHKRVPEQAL
Muscarinic acetylcholine receptor M3 (Cavia porcellus), sequence (Q8VH26 1-587): as the sequence (Q8VH26 whole entry) above
Beta-2 adrenergic receptor (Cavia porcellus, UniProt Q8K4Z4), sequence (Q8K4Z4 whole entry): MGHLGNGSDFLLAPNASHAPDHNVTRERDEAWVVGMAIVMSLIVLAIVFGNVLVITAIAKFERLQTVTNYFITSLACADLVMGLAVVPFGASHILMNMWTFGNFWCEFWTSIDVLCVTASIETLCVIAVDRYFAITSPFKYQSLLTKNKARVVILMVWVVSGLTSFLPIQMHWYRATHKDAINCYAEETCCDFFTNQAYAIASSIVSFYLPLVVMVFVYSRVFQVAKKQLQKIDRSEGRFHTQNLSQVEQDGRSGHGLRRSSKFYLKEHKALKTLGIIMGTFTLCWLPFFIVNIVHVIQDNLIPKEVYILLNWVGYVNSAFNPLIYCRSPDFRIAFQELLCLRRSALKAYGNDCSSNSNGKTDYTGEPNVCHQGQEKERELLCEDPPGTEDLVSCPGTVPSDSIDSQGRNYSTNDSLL

Compound: CS(=O)(=O)Nc1cc([C@@H](O)CNCCCCCCCCCN2CCC(OC(=O)Nc3ccccc3-c3ccc(O)c(Cl)c3)CC2)ccc1O
- Stability [1]: Stable
- Ratio EC50 [2]: 1.5
- AUC [3]: 256 ng·h/mL
- EC50 [4]: 7.3 nM
- ID50 (Canis familiaris [5]): 50 µg
- TIME (Cavia porcellus [6]): > 11 h
- Activity [7]: Non-toxic
- Drug metabolism [8]: Active
- AUC [9]: 920 ng·h/mL
- TIME [10]: 1.95 h
- Activity (Salmonella typhimurium): Non-toxic
- CL/F [11]: 3.6 mL/min/kg
- Activity (Canis familiaris [12]): Active
- EC50 [13]: > 10000 nM
- Ki [14]: 0.73 nM
- EC50 [15]: 3.7 nM
- EC50 [16]: 12 nM
- AUC [17]: 125 ng·h/mL
- Activity (Canis familiaris [18]): Active
- CL/F [19]: 14 mL/min/kg
- EC50 [20]: 5.8 nM
- Time (Canis familiaris [21]): 14 h
- microsomal CLint [22]: 23 µL/min/mg
- microsomal CLint [23]: 24 µL/min/mg
- TIME [24]: > 11 h
- Activity (Cavia porcellus [25]): Active
- Activity (Oryctolagus cuniculus): Non-toxic
- half-life [26]: 1.6 h
- clearance [27]: 164 mL/min/kg
- half-life [28]: 0.8 h
- Activity (Cavia porcellus [29]): Active

Compound: CS(=O)(=O)Nc1cc([C@@H](O)CNCCCCCCCCCN2CCC(OC(=O)Nc3ccccc3-c3ccc(O)c(F)c3)CC2)ccc1O
- EC50 [13]: > 10000 nM
- Ki [14]: 5 nM
- EC50 [15]: 26 nM
- microsomal CLint [22]: 16 µL/min/mg
- microsomal CLint [23]: 30 µL/min/mg

Compound: CS(=O)(=O)Nc1cc([C@@H](O)CNCCCCCCCCCN2CCC(OC(=O)Nc3ccccc3-c3cc(F)cc(F)c3O)CC2)ccc1O
- EC50 [13]: > 10000 nM
- Ki [14]: 22 nM
- EC50 [15]: 102 nM
- microsomal CLint [22]: 20 µL/min/mg
- microsomal CLint [23]: < 3.5 µL/min/mg

Compound: Cc1ccc(NC(=O)OC2CCN(CCCCCCCCCNC[C@H](O)c3ccc(O)c(NS(C)(=O)=O)c3)CC2)c(-c2ccc(O)c(Cl)c2)c1
- EC50 [13]: > 10000 nM
- Ki [14]: 4.8 nM
- microsomal CLint [22]: 22 µL/min/mg
- microsomal CLint [23]: 19 µL/min/mg

Compound: CS(=O)(=O)Nc1cc([C@@H](O)CNCCCCCCCCCN2CCC(OC(=O)Nc3ccccc3-c3ccccc3O)CC2)ccc1O
- EC50 [13]: > 10000 nM
- Ki [14]: 18 nM
- EC50 [15]: 90 nM
- microsomal CLint [22]: 17 µL/min/mg
- microsomal CLint [23]: < 2 µL/min/mg

Compound: CS(=O)(=O)Nc1cc([C@@H](O)CNCCc2ccc(OCCN3CCC(OC(=O)Nc4ccccc4-c4ccc(O)c(Cl)c4)CC3)cc2)ccc1O
- EC50 [13]: > 10000 nM
- Ki [14]: 36 nM
- microsomal CLint [22]: 74 µL/min/mg
- microsomal CLint [23]: 48 µL/min/mg

Compound: CS(=O)(=O)Nc1cc([C@@H](O)CNCCCCCCCCCN2C[C@H]3C[C@@]3(COC(=O)Nc3ccccc3-c3ccc(O)c(Cl)c3)C2)ccc1O
- EC50 [13]: > 10000 nM
- Ki [14]: 4.3 nM
- EC50 [15]: 17 nM
- microsomal CLint [22]: 49 µL/min/mg
- microsomal CLint [23]: 28 µL/min/mg

Compound: CS(=O)(=O)Nc1cc([C@@H](O)CNCCCCCCCCCN2CCC(OC(=O)Nc3ccccc3-c3cccc(O)c3)CC2)ccc1O
- EC50 [13]: > 10000 nM
- Ki [14]: 3.7 nM
- EC50 [15]: 129 nM
- microsomal CLint [22]: 26 µL/min/mg
- microsomal CLint [23]: < 3.5 µL/min/mg

Compound: CS(=O)(=O)Nc1cc([C@@H](O)CNCCCCCCCCCN2CC[C@@H](OC(=O)Nc3ccccc3-c3ccc(O)c(Cl)c3)C2)ccc1O
- EC50 [13]: > 10000 nM
- Ki [14]: 9.2 nM
- EC50 [15]: 24 nM
- microsomal CLint [22]: 39 µL/min/mg
- microsomal CLint [23]: 51 µL/min/mg

Compound: Cc1ccc(-c2ccc(O)c(Cl)c2)c(NC(=O)OC2CCN(CCCCCCCCCNC[C@H](O)c3ccc(O)c(NS(C)(=O)=O)c3)CC2)c1
- EC50 [13]: > 10000 nM
- Ki [14]: 2 nM
- EC50 [15]: 14 nM
- microsomal CLint [22]: 29 µL/min/mg
- microsomal CLint [23]: 6 µL/min/mg

Compound: CS(=O)(=O)Nc1cc([C@@H](O)CNCCCCCCCCCN2CCC(OC(=O)Nc3ccccc3-c3cc(F)c(O)cc3F)CC2)ccc1O
- EC50 [13]: > 10000 nM
- Ki [14]: 8.3 nM
- EC50 [15]: 22 nM
- microsomal CLint [22]: 13 µL/min/mg
- microsomal CLint [23]: 90 µL/min/mg

Compound: CS(=O)(=O)Nc1cc([C@@H](O)CNCCCCCCCCCN2C3CCC2CC(OC(=O)Nc2ccccc2-c2ccc(O)c(Cl)c2)C3)ccc1O (some centres undefined)
- EC50 [13]: > 10000 nM
- Ki [14]: 8.9 nM
- EC50 [15]: 23 nM
- microsomal CLint [22]: 8 µL/min/mg
- microsomal CLint [23]: 7.8 µL/min/mg

Compound: CS(=O)(=O)Nc1cc([C@@H](O)CNCCCCCCCCN2CCC(OC(=O)Nc3ccccc3-c3ccc(O)c(Cl)c3)CC2)ccc1O
- EC50 [13]: > 10000 nM
- Ki [14]: 1.1 nM
- EC50 [15]: 20 nM
- microsomal CLint [22]: 17 µL/min/mg
- microsomal CLint [23]: 24 µL/min/mg

Compound: CS(=O)(=O)Nc1cc([C@@H](O)CNCCCCCCCCCN2C[C@@H]3[C@@H](COC(=O)Nc4ccccc4-c4ccc(O)c(Cl)c4)[C@@H]3C2)ccc1O
- EC50 [13]: > 10000 nM
- Ki [14]: 1.3 nM
- EC50 [15]: 42 nM
- microsomal CLint [22]: 7 µL/min/mg
- microsomal CLint [23]: 13 µL/min/mg
